Laboratory results taken from ChEMBL document CHEMBL5321204, “Hybrids of delavirdine and piperdin-4-yl-aminopyrimidines (DPAPYs) as potent HIV-1 NNRTIs: Design, synthesis and biological activities” (Eur J Med Chem, 2023).

Key:
in vitro = settings: human, MT4 cells
Description: Selectivity index, ratio of CC50 for cytotoxicity against human MT4 cells assessed as reduction in cell viability to EC50 for antiviral activity against HIV-1 IIIb infected in human MT4 cells assessed as reduction in virus induced cytopathic effect

[1] = molecular target: Human immunodeficiency virus type 1 reverse transcriptase (Human immunodeficiency virus 1, UniProt Q72547); assay: Inhibition of HIV-1 reverse transcriptase using [2,8-3H]dGTP as substrate by […] assay
[2] = tested on: Human immunodeficiency virus 1; assay: Antiviral activity against HIV-1 Y188L mutant infected in human MT4 cells assessed as protection against virus induced cytopathic effect and measured after 5 days by MTT spectrophotometric assay; format: functional, organism-based; settings: Human immunodeficiency virus 1, MT4, 120 h
[3] = tested on: Human immunodeficiency virus 1; assay: Antiviral activity against HIV-1 F227L-V106A mutant infected in human MT4 cells assessed as protection against virus induced cytopathic effect and measured after 5 days by MTT spectrophotometric assay; format: functional, organism-based; settings: Human immunodeficiency virus 1, MT4, 120 h
[4] = Cytotoxicity against human MT4 cells assessed as reduction in cell viability incubated for 5 days by MTT spectrophotometric assay; format: toxicity, cell-based; settings: time 5 day
[5] = tested on: Human immunodeficiency virus 1; assay: Antiviral activity against HIV-1 RES056 mutant infected in human MT4 cells assessed as protection against virus induced cytopathic effect and measured after 5 days by MTT spectrophotometric assay; format: functional, organism-based; settings: Human immunodeficiency virus 1, MT4, 120 h
[6] = tested on: Human immunodeficiency virus 1; assay: Antiviral activity against HIV-1 Y181C mutant infected in human MT4 cells assessed as protection against virus induced cytopathic effect and measured after 5 days by MTT spectrophotometric assay; format: functional, organism-based; settings: Human immunodeficiency virus 1, MT4, 120 h
[7] = tested on: Human immunodeficiency virus 1; assay: Antiviral activity against HIV-1 E138K mutant infected in human MT4 cells assessed as protection against virus induced cytopathic effect and measured after 5 days by MTT spectrophotometric assay; format: functional, organism-based; settings: Human immunodeficiency virus 1, MT4, 120 h
[8] = tested on: Human immunodeficiency virus 1; assay: Antiviral activity against HIV-1 K103 N mutant infected in human MT4 cells assessed as protection against virus induced cytopathic effect and measured after 5 days by MTT spectrophotometric assay; format: functional, organism-based; settings: Human immunodeficiency virus 1, MT4, 120 h
[9] = tested on: Human immunodeficiency virus 1; assay: microbe, parasite or virus in culture; settings: Human immunodeficiency virus 1, IIIb, MT4, 120 h
Description: Antiviral activity against HIV-1 IIIb infected in human MT4 cells assessed as protection against virus induced cytopathic effect and measured after 5 days by MTT spectrophotometric assay

[10] = tested on: Human immunodeficiency virus 2; assay: Antiviral activity against HIV-2 ROD infected in human MT4 cells assessed as protection against virus induced cytopathic effect and measured after 5 days by MTT spectrophotometric assay; format: functional, organism-based; settings: Human immunodeficiency virus 2, ROD, MT4, 120 h
[11] = tested on: Human immunodeficiency virus 1; assay: Antiviral activity against HIV-1 L100I mutant infected in human MT4 cells assessed as protection against virus induced cytopathic effect and measured after 5 days by MTT spectrophotometric assay; format: functional, organism-based; settings: Human immunodeficiency virus 1, MT4, 120 h

Structure (SMILES) | selectivity ratio (in vitro) | IC50 [1] [µM] | EC50 [2] [µM] | EC50 [3] [µM] | CC50 at 120 h [4] [µM] | EC50 [5] [µM] | EC50 [6] [µM] | EC50 [7] [µM] | EC50 [8] [µM] | EC50 [9] [µM] | EC50 [10] [µM] | EC50 [11] [µM]
Cc1cc(C#N)cc(C)c1Oc1ccnc(NC2CCN(C(=O)c3cc4cc(NS(C)(=O)=O)ccc4[nH]3)CC2)n1 | 686 | 0.13 | 3.8 | 3.6 | 25 | > 25 | 0.73 | 0.21 | 0.54 | 0.036 | > 25 | 1.8
Cc1cc(C)c(Oc2ccnc(NC3CCN(C(=O)c4cc5cc(NS(C)(=O)=O)ccc5[nH]4)CC3)n2)c(C)c1 | 2150 | 0.11 | 0.75 | 3.06 | 19 | > 19 | 0.36 | 0.033 | 0.12 | 0.009 | > 19 | 1.1
CS(=O)(=O)Nc1ccc2[nH]c(C(=O)N3CCC(Nc4nccc(Oc5ccc(Cl)cc5)n4)CC3)cc2c1 | 20 | 1.1 | > 15 | > 15 | 15 | > 15 | > 15 | 4.5 | 8.4 | 0.74 | > 15 | 8.2
Cc1cc(Oc2ccnc(NC3CCN(C(=O)c4cc5cc(NS(C)(=O)=O)ccc5[nH]4)CC3)n2)cc(C)c1Cl | 4 | 3 | > 5.3 | > 5.3 | 5.3 | > 5.3 | > 5.3 | > 5.3 | > 5.3 | 1.3 | > 5.3 | > 5.3
Cc1cccc(C)c1Oc1ccnc(NC2CCN(C(=O)c3cc4cc(NS(C)(=O)=O)ccc4[nH]3)CC2)n1 | 678 | 12 | 0.67 | 2.7 | 21 | > 21 | 0.84 | 0.08 | 0.52 | 0.032 | > 21 | 3.3
CS(=O)(=O)Nc1ccc2[nH]c(C(=O)N3CCC(Nc4nccc(Oc5ccc(C#N)cc5)n4)CC3)cc2c1 | 62 | 1.1 | > 192 | > 192 | 192 | > 192 | > 192 | 7.3 | > 192 | 3.1 | > 192 | > 192
Cc1ccccc1Oc1ccnc(NC2CCN(C(=O)c3cc4cc(NS(C)(=O)=O)ccc4[nH]3)CC2)n1 | 41 | 8.6 | > 13 | > 13 | 13 | > 13 | 9 | 1 | 8.7 | 0.33 | > 13 | > 13
CS(=O)(=O)Nc1ccc2[nH]c(C(=O)N3CCC(Nc4nccc(Oc5ccc(Br)cc5F)n4)CC3)cc2c1 | 84 | 0.11 | > 80 | > 80 | 80 | > 80 | 29 | 3 | 23 | 0.94 | > 80 | 32
CS(=O)(=O)Nc1ccc2[nH]c(C(=O)N3CCC(Nc4nccc(Oc5cccc(Cl)c5)n4)CC3)cc2c1 | 20 | 0.34 | 9.2 | 8.8 | 14 | > 14 | 9 | 5.5 | 8.2 | 0.7 | > 14 | 8.1
Cc1cccc(Oc2ccnc(NC3CCN(C(=O)c4cc5cc(NS(C)(=O)=O)ccc5[nH]4)CC3)n2)c1 | 5 | 1.2 | > 27 | > 27 | 27 | > 27 | > 27 | > 27 | > 27 | 5.5 | > 27 | > 27
CS(=O)(=O)Nc1ccc2[nH]c(C(=O)N3CCC(Nc4nccc(Oc5cccc(C#N)c5)n4)CC3)cc2c1 | 8 | 0.6 | > 29 | > 28 | 29 | > 29 | > 29 | 8.7 | > 29 | 3.7 | > 29 | > 29
CS(=O)(=O)Nc1ccc2[nH]c(C(=O)N3CCC(Nc4nccc(Oc5ccccc5Cl)n4)CC3)cc2c1 | 35 | 1.6 | 7.8 | 8.3 | 15 | > 15 | 5.9 | 0.98 | 6.4 | 0.43 | > 15 | 7.6
O=C1Nc2ccc(Cl)cc2[C@@](C#CC2CC2)(C(F)(F)F)O1 [EFAVIRENZ] |  |  | 0.32 | 0.41 | > 6.3 | 0.57 |  | 0.007 | 0.14 |  |  | 0.067
Cc1cc(C#N)cc(C)c1Oc1nc(Nc2ccc(C#N)cc2)nc(N)c1Br [ETRAVIRINE] | > 1430 |  | 0.03 | 0.03 | > 4.6 | 0.1 |  | 0.017 | 0.004 |  |  | 0.012
Nc1ccn([C@@H]2CS[C@H](CO)O2)c(=O)n1 [LAMIVUDINE] | > 11 |  | 4.1 | 8.2 | > 87 | 10 | 3.5 | 7.4 | 4.7 | 8.3 |  | 1.7
Cc1ccnc2c1NC(=O)c1cccnc1N2C1CC1 [NEVIRAPINE] |  |  | > 15 | > 15 | > 15 | > 15 |  | 0.31 | 7.4 | 0.19 |  | 2.2
Cc1cn([C@H]2C[C@H](N=[N+]=[N-])[C@@H](CO)O2)c(=O)[nH]c1=O [ZIDOVUDINE] | > 290 |  | 0.023 | 0.026 | > 7.1 | 0.035 | 0.019 |  | 0.032 | 0.024 | 0.021 | 0.009
